Assay results reported in ChEMBL document CHEMBL1201862, “PubChem BioAssay data set” (2004).
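Following 48 hours of exposure in 96-well plates, responses at five concentrations were used to interpolate endpoints linearly. Abbreviation: GI50, concentration required for 50% inhibition of growth.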 The source made the active and inactive calls. No stated cut-off is given here; in the data, active = GI50 up to about 1.1 µM and inactive = higher.

How the values were obtained:
Test in all cases: inhibition of tumour cell growth, NCI panel, 48 h
[1] = system: SNB-19
[2] = system: NCI-H226
[3] = system: NCI-H23
[4] = system: TK-10
[5] = system: A549
[6] = system: HCT-15
[7] = system: SR
[8] = system: SK-MEL-28
[9] = system: MOLT-4
[10] = system: Malme-3M
[11] = system: CCRF-CEM
[12] = system: OVCAR-4
[13] = system: SF-268
[14] = system: SK-OV-3
[15] = system: SK-MEL-5
[16] = system: NCI-H460
[17] = system: MDA-N
[18] = system: HCT-116
[19] = system: BT-549
[20] = system: SK-MEL-2

| Compound | GI50 [1] | GI50 [2] | GI50 [3] | GI50 [4] | GI50 [5] | GI50 [6] [µM] | GI50 [7] | GI50 [8] | GI50 [9] | GI50 [10] | GI50 [11] | GI50 [12] | GI50 [13] | GI50 [14] | GI50 [15] | GI50 [16] | GI50 [17] | GI50 [18] | GI50 [19] | GI50 [20] |
| --- | --- | --- | --- | --- | --- | --- | --- | --- | --- | --- | --- | --- | --- | --- | --- | --- | --- | --- | --- | --- |
| CCCCCCCCCCCCC/C=C(/COCC[N+](C)(C)C)OC(C)=O.CCCCCCCCCCCCCC/C(=C/OCC[N+](C)(C)C)OC(C)=O | 1.47 µM (inactive) | 1.57 µM (inactive) | 1.9 µM (inactive) | 1.48 µM (inactive) | 1.71 µM (inactive) | 3.43 | 1.57 µM (inactive) | 6.5 µM (inactive) | 2.29 µM (inactive) | 5.68 µM (inactive) | 1.76 µM (inactive) | 1.95 µM (inactive) | 1.87 µM (inactive) | 4.63 µM (inactive) | 2.54 µM (inactive) | 0.63 µM (active) | 3.07 µM (inactive) | 0.643 µM (active) | 1.45 µM (inactive) | – |
| O=C(O)C1C2CCC(O2)C1C(=O)NCc1cccnc1 (centres undefined) | > 100 µM (inactive) | – | > 100 µM (inactive) | > 100 µM (inactive) | > 100 µM (inactive) | > 100 | > 100 µM (inactive) | > 100 µM (inactive) | – | > 100 µM (inactive) | > 100 µM (inactive) | > 100 µM (inactive) | – | > 100 µM (inactive) | > 100 µM (inactive) | > 100 µM (inactive) | > 100 µM (inactive) | > 100 µM (inactive) | > 100 µM (inactive) | > 100 µM (inactive) |
| CCOC(=O)c1c(NS(=O)(=O)c2ccccc2)sc2c1CCCC2 | 93.1 µM (inactive) | > 100 µM (inactive) | > 100 µM (inactive) | 62.8 µM (inactive) | 47.9 µM (inactive) | 33.7 | 59.8 µM (inactive) | – | 40.6 µM (inactive) | – | 25.5 µM (inactive) | – | 64.9 µM (inactive) | – | 74.5 µM (inactive) | > 100 µM (inactive) | > 100 µM (inactive) | 37.7 µM (inactive) | > 100 µM (inactive) | 68.1 µM (inactive) |
| O=C1CN(c2cccc(Cl)c2)C(=O)CN1CCN1CC(=O)N(c2cccc(Cl)c2)CC1=O | > 100 µM (inactive) | – | 26.4 µM (inactive) | > 100 µM (inactive) | > 100 µM (inactive) | > 100 | > 100 µM (inactive) | > 100 µM (inactive) | > 100 µM (inactive) | > 100 µM (inactive) | > 100 µM (inactive) | > 100 µM (inactive) | > 100 µM (inactive) | > 100 µM (inactive) | > 100 µM (inactive) | > 100 µM (inactive) | > 100 µM (inactive) | > 100 µM (inactive) | > 100 µM (inactive) | – |
| COC(=O)c1ccc(Oc2nc3ccc(C(F)(F)F)cc3nc2-c2ccccc2)cc1 | – | > 100 µM (inactive) | > 100 µM (inactive) | > 100 µM (inactive) | > 100 µM (inactive) | > 100 | 92.3 µM (inactive) | > 100 µM (inactive) | 66.4 µM (inactive) | > 100 µM (inactive) | > 100 µM (inactive) | > 100 µM (inactive) | > 100 µM (inactive) | > 100 µM (inactive) | > 100 µM (inactive) | 83.2 µM (inactive) | > 100 µM (inactive) | > 100 µM (inactive) | > 100 µM (inactive) | – |
| CCOC(=O)c1nc2cc(C(F)(F)F)ccc2nc1Nc1cc(OC)c(OC)c(OC)c1 | > 100 µM (inactive) | > 100 µM (inactive) | > 100 µM (inactive) | > 100 µM (inactive) | > 100 µM (inactive) | > 100 | > 100 µM (inactive) | > 100 µM (inactive) | > 100 µM (inactive) | > 100 µM (inactive) | > 100 µM (inactive) | – | > 100 µM (inactive) | > 100 µM (inactive) | > 100 µM (inactive) | > 100 µM (inactive) | > 100 µM (inactive) | > 100 µM (inactive) | > 100 µM (inactive) | – |
| CC12O[C@]3([C@H](C(=O)N4CCOC43C)[C@H]1Cl)[C@H]1O[C@H]12 (some centres undefined) | > 100 µM (inactive) | > 100 µM (inactive) | – | > 100 µM (inactive) | > 100 µM (inactive) | > 100 | 51.4 µM (inactive) | > 100 µM (inactive) | > 100 µM (inactive) | – | – | > 100 µM (inactive) | > 100 µM (inactive) | > 100 µM (inactive) | > 100 µM (inactive) | > 100 µM (inactive) | > 100 µM (inactive) | > 100 µM (inactive) | > 100 µM (inactive) | > 100 µM (inactive) |
| CC(C)(Br)C(Br)CCC1(C(Br)CBr)CO1 (centres undefined) | > 10 µM (inactive) | > 10 µM (inactive) | > 10 µM (inactive) | > 10 µM (inactive) | > 10 µM (inactive) | – | > 10 µM (inactive) | > 10 µM (inactive) | > 10 µM (inactive) | – | > 10 µM (inactive) | > 10 µM (inactive) | > 10 µM (inactive) | > 10 µM (inactive) | > 10 µM (inactive) | – | > 10 µM (inactive) | > 10 µM (inactive) | > 10 µM (inactive) | – |
| C=C(c1ccccc1)C1ON(C)CCc2cc(OC)c(OC)cc21 (centres undefined) | > 100 µM (inactive) | > 100 µM (inactive) | 66.2 µM (inactive) | > 100 µM (inactive) | > 100 µM (inactive) | 68.1 | 88.7 µM (inactive) | 45.1 µM (inactive) | 89.3 µM (inactive) | 96.4 µM (inactive) | > 100 µM (inactive) | – | 49.2 µM (inactive) | > 100 µM (inactive) | 23.3 µM (inactive) | > 100 µM (inactive) | > 100 µM (inactive) | 43.4 µM (inactive) | > 100 µM (inactive) | – |
| COc1cc(COC(=O)N2CSCC2C(=O)O)c([N+](=O)[O-])cc1OC (centres undefined) | > 100 µM (inactive) | > 100 µM (inactive) | > 100 µM (inactive) | – | > 100 µM (inactive) | > 100 | > 100 µM (inactive) | – | > 100 µM (inactive) | > 100 µM (inactive) | > 100 µM (inactive) | – | > 100 µM (inactive) | > 100 µM (inactive) | > 100 µM (inactive) | > 100 µM (inactive) | > 100 µM (inactive) | > 100 µM (inactive) | > 100 µM (inactive) | – |
| O=C1Nc2cccc(Cl)c2/C1=C\c1c(-c2ccccc2)nc2n1CCS2 | 26.6 µM (inactive) | – | 23.3 µM (inactive) | 13.2 µM (inactive) | 18.6 µM (inactive) | 18.9 | 19.8 µM (inactive) | 21.2 µM (inactive) | 10.6 µM (inactive) | 20.2 µM (inactive) | 15 µM (inactive) | – | 20.3 µM (inactive) | 24.4 µM (inactive) | 19.5 µM (inactive) | 17.8 µM (inactive) | 18.5 µM (inactive) | 20.2 µM (inactive) | 22.1 µM (inactive) | 20.3 µM (inactive) |
| C=C(C)[C@@H]1CC[C@]2(COC(C)=O)CC[C@]3(C)[C@H](CC[C@@H]4[C@@]5(C)CC[C@H](OC(C)=O)C(C)(C)[C@@H]5CC[C@]43C)[C@@H]12 [BETULIN DIACETATE] | > 50 µM (inactive) | > 50 µM (inactive) | > 50 µM (inactive) | – | > 50 µM (inactive) | > 50 | > 50 µM (inactive) | > 50 µM (inactive) | > 50 µM (inactive) | – | > 50 µM (inactive) | > 50 µM (inactive) | – | > 50 µM (inactive) | > 50 µM (inactive) | – | > 50 µM (inactive) | > 50 µM (inactive) | > 50 µM (inactive) | > 50 µM (inactive) |
| CC#CC(O)(C(=O)OCCCN(C)C)C1CCCCC1 (centres undefined) | > 100 µM (inactive) | > 100 µM (inactive) | > 100 µM (inactive) | > 100 µM (inactive) | > 100 µM (inactive) | > 100 | > 100 µM (inactive) | > 100 µM (inactive) | > 100 µM (inactive) | > 100 µM (inactive) | > 100 µM (inactive) | – | > 100 µM (inactive) | > 100 µM (inactive) | > 100 µM (inactive) | > 100 µM (inactive) | > 100 µM (inactive) | > 100 µM (inactive) | > 100 µM (inactive) | > 100 µM (inactive) |
| CCc1c(Cc2cccc3ccccc23)n2c(nc1=O)SCC2OCCO (centres undefined) | > 100 µM (inactive) | > 100 µM (inactive) | 42.8 µM (inactive) | > 100 µM (inactive) | 77.3 µM (inactive) | 43.5 | 25.9 µM (inactive) | > 100 µM (inactive) | 26.6 µM (inactive) | > 100 µM (inactive) | 19.6 µM (inactive) | 41.5 µM (inactive) | 55.7 µM (inactive) | – | 95.5 µM (inactive) | > 100 µM (inactive) | 40.8 µM (inactive) | > 100 µM (inactive) | 41.7 µM (inactive) | > 100 µM (inactive) |
| O=C(O)CCO/N=C1/C(=C2/C(=O)Nc3ccccc32)Nc2ccccc21 | 40.5 µM (inactive) | – | 17.7 µM (inactive) | 32.4 µM (inactive) | 22.5 µM (inactive) | 6.58 | 12 µM (inactive) | 33.3 µM (inactive) | 17.1 µM (inactive) | 54.5 µM (inactive) | 13.8 µM (inactive) | 26.2 µM (inactive) | 26.1 µM (inactive) | 2.98 µM (inactive) | 13.4 µM (inactive) | 17.6 µM (inactive) | 28.8 µM (inactive) | 12.3 µM (inactive) | 24.5 µM (inactive) | 7.18 µM (inactive) |
| Cc1ccnc2c1ccc1nc3ccccc3n12 | – | 18.4 µM (inactive) | > 100 µM (inactive) | > 100 µM (inactive) | > 100 µM (inactive) | – | 44.7 µM (inactive) | – | > 100 µM (inactive) | – | > 100 µM (inactive) | 37.8 µM (inactive) | 25.1 µM (inactive) | – | 17.7 µM (inactive) | 45.6 µM (inactive) | > 100 µM (inactive) | 28.1 µM (inactive) | 63.5 µM (inactive) | > 100 µM (inactive) |
